Assay results from patent publication US8617523B2, “Anti-biofilm carbonate compounds for use in oral care compositions” (Colgate-Palmolive Company, priority 2009, dated 2013).
Converted amounts (≈) assume the structure as drawn.

Legend:
A. naeslundii = assay: Minimal Inhibitory Concentration (MIC) anti-microbial test; assay type: cell-based; details: Actinomyces naeslundii; single species of A. naeslundii biofilm; read-out: MIC (Minimum Inhibitory Concentration, bactericidal)
Procedure: The anti-microbial test was measured according to the SOP No. ATO-5308-00 for determination of Minimal Inhibitory Concenctration (MIC).

A. naeslundii biofilm = assay: crystal violet assay, anti-biofilm (MBEC); assay type: cell-based, Actinomyces naeslundii; details: single species of A. naeslundii biofilm

CC(C)C(O)C(C)(C)COC(=O)OC1CCCC1 (stereo not drawn)
MIC (A. naeslundii): 625 mg/L (≈ 2420 µM) | MBEC (Minimum Biofilm Eradication Concentration, anti-biofilm) (A. naeslundii biofilm): 156 ppm

CC(CCCC(C)(C)O)CCOC(=O)Oc1ccccc1 (stereo not drawn)
MIC (A. naeslundii): 156 mg/L (≈ 530 µM) | MBEC (Minimum Biofilm Eradication Concentration, anti-biofilm) (A. naeslundii biofilm): 78 ppm

CCCCC(CC)COC(=O)OCCCCCCO (stereo not drawn)
MIC (A. naeslundii): 78 mg/L (≈ 284 µM) | MBEC (Minimum Biofilm Eradication Concentration, anti-biofilm) (A. naeslundii biofilm): 39 ppm
